According to publication PMC5613062 (Investigational New Drugs, 2017):
Where two headings read alike, the source gives them in different places. Marks after values point to notes of the source that are not given here. Values belong to the compound of their own block, whether it stands above or below them.

What was measured:
[1] = system: Calu-6 human non-small cell lung cancer xenograft; design: method as in earlier work; settings: AZD6244 3 mg/kg BD; AZD2171 […] QD; ref IB; cited from earlier work
[2] = cited from earlier work
[3] = ref Study D1532C00005, cited from earlier work
[4] = design: method as in earlier work; settings: twice-daily oral dosing in SBE-CD, monkeys; no notable gastrointestinal tract or renal pathology; ref IB; cited from earlier work
[5] = system: HCT-116 human colorectal cancer xenograft; design: method as in earlier work; settings: AZD6244 25 m/kg BD; docetaxel 15 mg/kg once weekly; ref IB; cited from earlier work
[6] = design: method as in product label; settings: ref product label, cited from earlier work
[7] = system: SW620 human colorectal cancer xenograft; design: method as in earlier work; settings: ref IB, cited from earlier work
[8] = Pharmacokinetics alone and in combination, selumetinib + erlotinib arm
[9] = design: method as in product label; settings: ref product label, cited from earlier work; remark: listed apart in the source
[10] = Pharmacokinetics alone and in combination, selumetinib + temsirolimus arm; type: in vivo, human; settings: human, plasma, iv; for AUC(0-t) / AUC(0–12) / Cmax: geometric mean (% CV); for AUC(0-t): read-out: AUC(0–8); for AUC(0–12): read-out: AUC(0–12); for Cmax: read-out: Cmax; for tmax: median (range), read-out: tmax
[11] = system: Lovo colorectal cancer xenograft; design: method as in earlier work; settings: rapamycin experiment, usual monotherapy schedules, doses not given; ref IB; cited from earlier work
[12] = AZD6244 25 mg/kg BD, irinotecan 25 mg/kg once weekly, docetaxel 15 mg/kg once weekly
[13] = geometric mean, QD cohorts, dosed alone, selumetinib 150 mg cohort (N = 13), erlotinib 100 mg QD
[14] = NSCLC patients, single-agent erlotinib 150 mg
[15] = dosed alone, selumetinib 50 mg cohort (N = 25), temsirolimus 25 mg IV
[16] = dosed alone, selumetinib 75 mg cohort (N = 6), temsirolimus 25 mg IV
[17] = dosed in combination, selumetinib 50 mg BID (N = 22) + temsirolimus 25 mg IV
[18] = dosed in combination, selumetinib 75 mg BID (N = 5) + temsirolimus 25 mg IV

Compound: COc1cc2c(Oc3ccc4[nH]c(C)cc4c3F)ncnc2cc1OCCCN1CCCC1 [AZD2171, reference compound]
Tumor growth inhibition as a % of control [1]: 49.6 % of control

Compound: Cn1cnc2c(F)c(Nc3ccc(Br)cc3Cl)c(C(=O)NOCCO)cc21 [AZD6244 Hyd-Sulfate]
toxicity findings, 6-month study ([2]; male mice dosed 8–15 weeks at the high dose level, ref IB): dilation of the corpus spongiosum
tissue mineralization ([2]; mice dosed for up to one month, ref IB): multiple tissues (cornea, kidney, liver, myocardium, skeletal muscle, glandular stomach)
toxicity findings at non-tolerated dose levels ([2]; mouse, in vivo, po): gastrointestinal tract toxicity and hematopoietic atrophy
DLT in the first 22 days of dosing ([3]; 75 mg BD cohort, one DLT): CTCAE Grade 3 fatigue
DLTs in the first 22 days of dosing ([3]; 100mg BD cohort, two DLTs): pleural effusion and rash (both CTC AE Grade 3)
maximum tolerated dose ([3]; capsule formulation): 75 mg BD
toxicity findings [4]: fluid and/or red colored feces

Compound: CC(=O)O[C@@]12CO[C@@H]1C[C@H](O)[C@@]1(C)C(=O)[C@H](O)C3=C(C)[C@@H](OC(=O)[C@H](O)[C@@H](NC(=O)OC(C)(C)C)c4ccccc4)C[C@@](O)([C@@H](OC(=O)c4ccccc4)[C@H]21)C3(C)C [Docetaxel]
Tumor growth inhibition as a % of control [5]: 93.4 % of control
severe neurosensory symptoms (paresthesia, dysesthesia, pain) ([6]; 53/965 metastatic breast cancer patients): 5.5%
treatment discontinuation due to severe neurosensory symptoms ([6]; metastatic breast cancer patients): 6.1%
Tumor growth inhibition as a % of control [7, 12]: 12 % of control

Compound: C#Cc1cccc(Nc2ncnc3cc(OCCOC)c(OCCOC)cc23)c1 [Erlotinib, reference compound]
Cmax ([8]; geometric mean (% CV), dosed alone, selumetinib 50 mg cohort (N = 14), erlotinib 100 mg QD): 1681 (27.13) [13] ng/mL
Cmax ([8]; geometric mean (% CV), dosed in combination, selumetinib 50 mg BID (N = 12) + erlotinib 100 mg QD): 1725 (30.11) ng/mL
Cmax ([8]; geometric mean (% CV), dosed in combination, selumetinib 75 mg BID (N = 6) + erlotinib 100 mg QD): 1739 (39.86) ng/mL
Cmax ([8]; geometric mean, QD cohorts, dosed alone, selumetinib 100 mg cohort (N = 6), erlotinib 100 mg QD): 1180 ng/mL
AUC(0–8) [8, 13]: 12,710^c ng•h/mL
Cmax [8, 13]: 1980^c ng/mL
Cmax ([8]; geometric mean, QD cohorts, in combination, selumetinib 50 mg (N = 6) + erlotinib 100 mg QD): 1468^d ng/mL
tmax ([8]; human, plasma, oral): 1.5 h
tmax ([8]; human, plasma, oral, 100 mg): 1.5 h
AUC(0-t) ([8]; human, plasma, oral, 100 mg, AUC(0–8), geometric mean, QD cohorts, dosed alone, selumetinib 100 mg cohort (N = 6), erlotinib 100 mg QD): 7100 ng·h/mL
AUC(0-t) ([8]; human, plasma, oral, 100 mg, AUC(0–12), geometric mean, QD cohorts, dosed alone, selumetinib 100 mg cohort (N = 6), erlotinib 100 mg QD): 10300 ng·h/mL
AUC(0-t) ([8]; human, plasma, oral, AUC(0–8), geometric mean (% CV), dosed alone, selumetinib 50 mg cohort (N = 14), erlotinib 100 mg QD): 10100 ng·h/mL
AUC(0-t) ([8]; human, plasma, oral, AUC(0–8), geometric mean (% CV), dosed alone, selumetinib 75 mg cohort (N = 6), erlotinib 100 mg QD): 9590 ng·h/mL
AUC(0-t) ([8]; human, plasma, oral, AUC(0–8), geometric mean (% CV), dosed in combination, selumetinib 50 mg BID (N = 12) + erlotinib 100 mg QD): 10400 ng·h/mL
AUC(0-t) ([8]; human, plasma, oral, AUC(0–8), geometric mean (% CV), dosed in combination, selumetinib 75 mg BID (N = 6) + erlotinib 100 mg QD): 10400 ng·h/mL
AUC(0-t) ([8]; human, plasma, oral, AUC(0–8), geometric mean, QD cohorts, dosed alone, selumetinib 50 mg cohort (N = 7), erlotinib 100 mg QD): 9620 ng·h/mL
AUC(0-t) ([8]; human, plasma, oral, AUC(0–8), geometric mean, QD cohorts, in combination, selumetinib 50 mg (N = 6) + erlotinib 100 mg QD): 8600 ng·h/mL
AUC(0-t) ([8]; human, plasma, oral, AUC(0–8), geometric mean, QD cohorts, in combination, selumetinib 100 mg (N = 6) + erlotinib 100 mg QD): 8500 ng·h/mL
AUC(0-t) ([8]; human, plasma, oral, AUC(0–8), geometric mean, QD cohorts, in combination, selumetinib 150 mg (N = 12) + erlotinib 100 mg QD): 13000 ng·h/mL
AUC(0-t) ([8]; human, plasma, oral, AUC(0–12), geometric mean (% CV), dosed alone, selumetinib 50 mg cohort (N = 14), erlotinib 100 mg QD): 14500 ng·h/mL
AUC(0-t) ([8]; human, plasma, oral, AUC(0–12), geometric mean (% CV), dosed alone, selumetinib 75 mg cohort (N = 6), erlotinib 100 mg QD): 13800 ng·h/mL
AUC(0-t) ([8]; human, plasma, oral, AUC(0–12), geometric mean (% CV), dosed in combination, selumetinib 50 mg BID (N = 12) + erlotinib 100 mg QD): 14700 ng·h/mL
AUC(0-t) ([8]; human, plasma, oral, AUC(0–12), geometric mean (% CV), dosed in combination, selumetinib 75 mg BID (N = 6) + erlotinib 100 mg QD): 14700 ng·h/mL
AUC(0-t) ([8]; human, plasma, oral, AUC(0–12), geometric mean, QD cohorts, dosed alone, selumetinib 50 mg cohort (N = 7), erlotinib 100 mg QD): 14000 ng·h/mL
AUC(0-t) ([8]; human, plasma, oral, AUC(0–12), geometric mean, QD cohorts, dosed alone, selumetinib 150 mg cohort (N = 13), erlotinib 100 mg QD): 18300 ng·h/mL
AUC(0-t) ([8]; human, plasma, oral, AUC(0–12), geometric mean, QD cohorts, in combination, selumetinib 100 mg (N = 6) + erlotinib 100 mg QD): 12000 ng·h/mL
AUC(0-t) ([8]; human, plasma, oral, AUC(0–12), geometric mean, QD cohorts, in combination, selumetinib 150 mg (N = 12) + erlotinib 100 mg QD): 18600 ng·h/mL
Cmax ([8]; human, plasma, oral, Cmax, geometric mean (% CV), dosed alone, selumetinib 75 mg cohort (N = 6), erlotinib 100 mg QD): 1420 ng/mL
Cmax ([8]; human, plasma, oral, Cmax, geometric mean, QD cohorts, dosed alone, selumetinib 50 mg cohort (N = 7), erlotinib 100 mg QD): 1620 ng/mL
Cmax ([8]; human, plasma, oral, Cmax, geometric mean, QD cohorts, in combination, selumetinib 100 mg (N = 6) + erlotinib 100 mg QD): 1430 ng/mL
Cmax ([8]; human, plasma, oral, Cmax, geometric mean, QD cohorts, in combination, selumetinib 150 mg (N = 12) + erlotinib 100 mg QD): 2030 ng/mL
tmax ([8]; median (range), QD cohorts, dosed alone, selumetinib 150 mg cohort (N = 13), erlotinib 100 mg QD): 2.00 (1.00–6.00)^c h
tmax ([8]; median (range), QD cohorts, in combination, selumetinib 50 mg (N = 6) + erlotinib 100 mg QD): 4.00 (1.00–8.00)^d h
tmax ([8]; median (range), dosed alone, selumetinib 75 mg cohort (N = 6), erlotinib 100 mg QD): 3.0 (2.0–6.0) h
PK parameters when administered alone and in combination ([8]; selumetinib + erlotinib arm): similar
Grade 3/4 diarrhea [9, 14]: 6%
Grade 3/4 rash [9, 14]: 9%
median time to onset of diarrhea [9, 14]: 12 days
median time to onset of rash [9, 14]: 8 days
patients needing dose reduction for diarrhea [9, 14]: 1%
patients needing dose reduction for rash [9, 14]: Six
study discontinuation due to diarrhea [9, 14]: 1%
study discontinuation due to rash [9, 14]: 1%
median time to start of ILD-like symptoms after initiating therapy ([9]; range 5 days to more than 9 months): 39 days

Compound: CCc1c2c(nc3ccc(OC(=O)N4CCC(N5CCCCC5)CC4)cc13)-c1cc3c(c(=O)n1C2)COC(=O)[C@]3(O)CC [Irinotecan]
Tumor growth inhibition as a % of control [7, 12]: 67 % of control

AUC(0-t) [10, 15]: 341 ng·h/mL
AUC(0–12) [10, 15]: 514 ng·h/mL
Cmax [10, 15]: 58.5 ng/mL
AUC(0-t) [10, 16]: 266 ng·h/mL
AUC(0–12) [10, 16]: 382 ng·h/mL
Cmax [10, 16]: 49.5 ng/mL
AUC(0-t) [10, 17]: 394 ng·h/mL
AUC(0–12) [10, 17]: 584 ng·h/mL
Cmax [10, 17]: 67 ng/mL
AUC(0-t) [10, 18]: 292 ng·h/mL
AUC(0–12) [10, 18]: 360 ng·h/mL
Cmax [10, 18]: 51.2 ng/mL
tmax [10, 15]: 1.5 h
tmax [10, 16]: 2 h
tmax [10, 17]: 1.5 h
tmax [10, 18]: 2 h
Compound: CO[C@H]1C[C@@H]2CC[C@@H](C)[C@@](O)(O2)C(=O)C(=O)N2CCCC[C@H]2C(=O)O[C@H]([C@H](C)C[C@@H]2CC[C@@H](O)[C@H](OC)C2)CC(=O)[C@H](C)/C=C(\C)[C@@H](O)[C@@H](OC)C(=O)[C@H](C)C[C@H](C)/C=C/C=C/C=C/1C [Sirolimus]
Tumor growth inhibition as a % of control [11]: 38 % of control

Compound: Cn1nnc2c(C(N)=O)ncn2c1=O [Temozolamide]
Tumor growth inhibition as a % of control ([7]; temozolamide experiment, usual monotherapy schedules, doses not given): 15 % of control
